In ChEMBL document CHEMBL1201862, “PubChem BioAssay data set” (2004):
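Exposure lasted 48 hours, with cells grown in 96-well plates and compounds tested at five concentrations. GI50 = concentration required for 50% inhibition of growth.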 Calls of active or inactive are those of the source. Rule as the data show it: active = GI50 up to about 1.1 µM and inactive = higher.

Experiments:
Assay in all cases: growth of human tumour cells (NCI), 48 h
SF-539 = system: SF-539
UACC-257 = system: UACC-257
TK-10 = system: TK-10
HCT-116 = system: HCT-116
CAKI-1 = system: CAKI-1
SK-MEL-2 = system: SK-MEL-2
SW-620 = system: SW-620
K562 = system: K562
HL-60 = system: HL-60
SF-295 = system: SF-295
MOLT-4 = system: MOLT-4
IGROV-1 = system: IGROV-1
SK-MEL-5 = system: SK-MEL-5
SK-MEL-28 = system: SK-MEL-28
UACC-62 = system: UACC-62
HCC 2998 = system: HCC 2998

Row | SMILES | GI50 (SF-539) | GI50 (UACC-257) | GI50 (TK-10) | GI50 (HCT-116) | GI50 (CAKI-1) | GI50 (SK-MEL-2) | GI50 (SW-620) | GI50 (K562) | GI50 (HL-60) | GI50 (SF-295) | GI50 (MOLT-4) | GI50 (IGROV-1) | GI50 (SK-MEL-5) | GI50 (SK-MEL-28) | GI50 (UACC-62) | GI50 (HCC 2998)
1 | O=C(CC1(O)C(=O)Nc2ccccc21)c1cccc(O)c1 (stereo not drawn) | > 100 µM (inactive) | > 100 µM (inactive) | > 100 µM (inactive) | > 100 µM (inactive) | > 100 µM (inactive) | > 100 µM (inactive) | > 100 µM (inactive) | > 100 µM (inactive) | > 100 µM (inactive) | > 100 µM (inactive) | > 100 µM (inactive) | > 100 µM (inactive) | 48.3 µM (inactive) | > 100 µM (inactive) | > 100 µM (inactive) | –
2 | Cc1cc(N(CCC#N)CCC#N)ccc1/C=C(\NC(=O)/C=C/c1ccccc1)NC(=O)Nc1ccc(Cl)cc1 | 26 µM (inactive) | > 100 µM (inactive) | – | 23.6 µM (inactive) | 19.2 µM (inactive) | > 100 µM (inactive) | > 100 µM (inactive) | 2.13 µM (inactive) | 37.5 µM (inactive) | 42.5 µM (inactive) | > 100 µM (inactive) | 38.8 µM (inactive) | 3.83 µM (inactive) | > 100 µM (inactive) | 8.83 µM (inactive) | 58.7 µM (inactive)
3 | c1cncc(C2N3CCCCC3[C@@H]3c4[nH]c5ccccc5c4CCN23)c1 (stereo partly drawn) | > 100 µM (inactive) | > 100 µM (inactive) | > 100 µM (inactive) | > 100 µM (inactive) | > 100 µM (inactive) | > 100 µM (inactive) | > 100 µM (inactive) | > 100 µM (inactive) | > 100 µM (inactive) | > 100 µM (inactive) | > 100 µM (inactive) | > 100 µM (inactive) | > 100 µM (inactive) | > 100 µM (inactive) | 47.6 µM (inactive) | –
4 | CCNC(=O)O/N=C1\CCC2[C@@H]3CC=C4C[C@@H](OC(=O)NCC)CC[C@]4(C)C3CC[C@]12C (stereo partly drawn) | 8.95 µM (inactive) | 0.422 µM (active) | 1.77 µM (inactive) | 0.57 µM (active) | 1.88 µM (inactive) | 2.13 µM (inactive) | 3.61 µM (inactive) | 0.769 µM (active) | – | 0.971 µM (active) | 1.05 µM (active) | 4.43 µM (inactive) | 0.807 µM (active) | 3.19 µM (inactive) | 0.951 µM (active) | 4.68 µM (inactive)
5 | CCC1=CCC(P(=O)(c2ccccc2)c2ccccc2)CC1C (stereo not drawn) | 42.9 µM (inactive) | 74.5 µM (inactive) | 32.6 µM (inactive) | 22.9 µM (inactive) | > 100 µM (inactive) | 29.7 µM (inactive) | 48.5 µM (inactive) | 35.2 µM (inactive) | 22.2 µM (inactive) | 32 µM (inactive) | 20.5 µM (inactive) | 47.1 µM (inactive) | 28 µM (inactive) | 37.8 µM (inactive) | 33.3 µM (inactive) | –
6 | Cc1cc2c(=O)cc(-c3ccc(Cl)c(Cl)c3)oc2c(C(=O)O)c1C | > 100 µM (inactive) | > 100 µM (inactive) | > 100 µM (inactive) | > 100 µM (inactive) | > 100 µM (inactive) | > 100 µM (inactive) | > 100 µM (inactive) | > 100 µM (inactive) | – | > 100 µM (inactive) | > 100 µM (inactive) | > 100 µM (inactive) | > 100 µM (inactive) | > 100 µM (inactive) | > 100 µM (inactive) | –
7 | COc1ccc2oc3c(OC)c(OC)c(OC)cc3c(=O)c2c1 | 40.4 µM (inactive) | > 100 µM (inactive) | > 100 µM (inactive) | > 100 µM (inactive) | > 100 µM (inactive) | > 100 µM (inactive) | > 100 µM (inactive) | > 100 µM (inactive) | – | – | > 100 µM (inactive) | > 100 µM (inactive) | > 100 µM (inactive) | > 100 µM (inactive) | > 100 µM (inactive) | > 100 µM (inactive)
